Experimental data: EP4786487A1, “PEPTIDE” (Peptidream Inc, priority 2023, dated 2025)
Starred links: 1 amine or outer side, 2 acyl side, 3 side chain; linkers in the order of their positions; H or OH if unused. Positions of bridges follow the written chain, without caps; N, C: chain ends. Non-standard residues stand in square brackets, D forms with d. Residues, ends and D or L forms follow the SMILES beside them. Phe(3-OCH2COOH) = N[C@@H](Cc1cccc(OCC(=O)O)c1)C(=O)O; Phe(4-COOH) = N[C@@H](Cc1ccc(C(=O)O)cc1)C(=O)O; Trp(7-aza) = N[C@@H](Cc1c[nH]c2ncccc12)C(=O)O; Gly(N(CH2)3COOH) = O=C(O)CCCNCC(=O)O; X1 = CCCCCCC[C@H](N[*:1])C(=O)[*:2]; NMeF = CN[C@@H](Cc1ccccc1)C(=O)O; NMeA = CN[C@@H](C)C(=O)O; Sar = CNCC(=O)O

Experiments:
Assay type in all cases: cell-based
Myostatin [1] = target: T1, Myostatin (Homo sapiens, UniProt O14793); assay: Reporter gene assay for myostatin signaling in HepG2 cell line, Evaluation Procedure (1), myostatin inhibition; conditions: Method A: Myostatin 10 ng/mL; read-out: IC50 (Luciferase) Myostatin HepG2
T1 construct: active myostatin (also called mature myostatin) is a homodimer consisting of two C-terminal growth factor domains; purchased R&D systems 788-G8/CF
T1 sequence (O14793 267-375): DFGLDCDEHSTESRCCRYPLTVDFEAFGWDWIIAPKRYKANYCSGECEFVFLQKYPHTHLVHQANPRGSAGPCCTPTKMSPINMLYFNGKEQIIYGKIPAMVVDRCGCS
Outline: (§1)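 IC50 derived from One-Glo luciferase luminescence after 20–24 h at 37 °C. Peptides titrated 4-fold at 0.006–100 nmol/L against myostatin or 0.12–2000 nmol/L against GDF-11 in HepG2 cells carrying a transfected CAGA12-luciferase reporter, kept in 0.1% BSA EMEM.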

Myostatin [2] = assay: as above; conditions: Method A; GDF-11 IC50 versus Myostatin IC50
Outline: as §1

GDF-11 = target: T2, GDF-11 (Homo sapiens, UniProt O95390); assay: Reporter gene assay for myostatin signaling in HepG2 cell line, Evaluation Procedure (1), GDF-11 inhibition; conditions: Method A: GDF-11 10 ng/mL; read-out: IC50 (Luciferase) GDF-11 HepG2
T2 construct: purchased R&D systems 1958-GD-G8/CF
T2 sequence (O95390 299-407): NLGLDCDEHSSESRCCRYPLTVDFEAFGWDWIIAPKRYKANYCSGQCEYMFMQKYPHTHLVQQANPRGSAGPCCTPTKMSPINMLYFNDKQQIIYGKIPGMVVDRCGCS
Outline: as §1

Row | SMILES | IC50 (Myostatin [1]) | Selectivity (Myostatin [2]) | IC50 (GDF-11)
1 | CC[C@H](C)[C@@H]1NC(=O)[C@H](Cc2ccccc2)N(C)C(=O)[C@H](Cc2ccc(O)cc2)NC(=O)[C@H](Cc2c[nH]c3ccccc23)NC(=O)[C@H](CO)NC(=O)CN(CCCC(=O)O)C(=O)CSC[C@H](C(=O)O)NC(=O)[C@H](Cc2ccccc2)N(C)C(=O)[C@H](C)N(C)C(=O)[C@H](CC(C)C)NC(=O)[C@H](Cc2ccccc2)N(C)C(=O)[C@H](CCCNC(=N)N)NC(=O)[C@H](Cc2ccc(C(=O)O)cc2)NC(=O)[C@H](Cc2cccc(OCC(=O)O)c2)NC(=O)[C@H](C)N(C)C1=O [Myostatin_99_v158] ({CH2CO}-[Gly(N(CH2)3COOH)]SWY[NMeF]I[NMeA][Phe(3-OCH2COOH)][Phe(4-COOH)]R[NMeF]L[NMeA][NMeF][dC]-OH; thioether N-15) | 0.062 µM | 104 | 6.46 µM
2 | CCCCCCC[C@@H]1NC(=O)[C@H](Cc2ccccc2)N(C)C(=O)[C@H](CCCNC(=N)N)NC(=O)[C@H](Cc2ccc(C(=O)O)cc2)NC(=O)[C@H](Cc2cccc(OCC(=O)O)c2)NC(=O)CN(C)C(=O)[C@H]([C@@H](C)CC)NC(=O)[C@H](Cc2ccccc2)N(C)C(=O)[C@H](Cc2ccc(O)cc2)NC(=O)[C@H](Cc2c[nH]c3ccccc23)NC(=O)[C@H](CO)NC(=O)[C@H](C)NC(=O)CSC[C@H](C(=O)O)NC(=O)[C@H](Cc2ccccc2)N(C)C(=O)[C@H](C)N(C)C1=O [Myostatin_99_v159] ({CH2CO}-ASWY[NMeF]I[Sar][Phe(3-OCH2COOH)][Phe(4-COOH)]R[NMeF][X1][NMeA][NMeF][dC]-OH; thioether N-15) | 0.0039 µM | 104 | 0.404 µM
3 | CCCCCCC[C@@H]1NC(=O)[C@H](Cc2ccccc2)N(C)C(=O)[C@H](CCCNC(=N)N)NC(=O)[C@H](Cc2ccc(C(=O)O)cc2)NC(=O)[C@H](Cc2cccc(OCC(=O)O)c2)NC(=O)CN(C)C(=O)[C@H]([C@@H](C)CC)NC(=O)[C@H](Cc2ccccc2)N(C)C(=O)[C@H](Cc2ccc(O)cc2)NC(=O)[C@H](Cc2c[nH]c3ncccc23)NC(=O)[C@H](CO)NC(=O)[C@H](C)NC(=O)CSC[C@H](C(=O)O)NC(=O)[C@H](Cc2ccccc2)N(C)C(=O)[C@H](C)N(C)C1=O [Myostatin_99_v160] ({CH2CO}-AS[Trp(7-aza)]Y[NMeF]I[Sar][Phe(3-OCH2COOH)][Phe(4-COOH)]R[NMeF][X1][NMeA][NMeF][dC]-OH; thioether N-15) | 0.0032 µM | 109 | 0.35 µM
4 | CCCCCCC[C@@H]1NC(=O)[C@H](Cc2ccccc2)N(C)C(=O)[C@H](CCCNC(=N)N)NC(=O)[C@H](Cc2ccc(C(=O)O)cc2)NC(=O)[C@H](Cc2cccc(OCC(=O)O)c2)NC(=O)CN(C)C(=O)[C@H]([C@@H](C)CC)NC(=O)[C@H](Cc2ccccc2)N(C)C(=O)[C@H](Cc2ccc(O)cc2)NC(=O)[C@H](Cc2c[nH]c3ccccc23)NC(=O)[C@H](CO)NC(=O)CN(CCCC(=O)O)C(=O)CSC[C@H](C(=O)O)NC(=O)[C@H](Cc2ccccc2)N(C)C(=O)[C@H](C)N(C)C1=O [Myostatin_99_v161] ({CH2CO}-[Gly(N(CH2)3COOH)]SWY[NMeF]I[Sar][Phe(3-OCH2COOH)][Phe(4-COOH)]R[NMeF][X1][NMeA][NMeF][dC]-OH; thioether N-15) | 0.0082 µM | 151 | 1.24 µM
5 | CCCCCCC[C@@H]1NC(=O)[C@H](Cc2ccccc2)N(C)C(=O)[C@H](CCCNC(=N)N)NC(=O)[C@H](Cc2ccc(C(=O)O)cc2)NC(=O)[C@H](Cc2cccc(OCC(=O)O)c2)NC(=O)CN(C)C(=O)[C@H]([C@@H](C)CC)NC(=O)[C@H](Cc2ccccc2)N(C)C(=O)[C@H](Cc2ccc(O)cc2)NC(=O)[C@H](Cc2c[nH]c3ncccc23)NC(=O)[C@H](CO)NC(=O)CN(CCCC(=O)O)C(=O)CSC[C@H](C(=O)O)NC(=O)[C@H](Cc2ccccc2)N(C)C(=O)[C@H](C)N(C)C1=O [Myostatin_99_v162] ({CH2CO}-[Gly(N(CH2)3COOH)]S[Trp(7-aza)]Y[NMeF]I[Sar][Phe(3-OCH2COOH)][Phe(4-COOH)]R[NMeF][X1][NMeA][NMeF][dC]-OH; thioether N-15) | 0.0061 µM | 15 | 0.09 µM
6 | CCCCCCC[C@@H]1NC(=O)[C@H](Cc2ccccc2)N(C)C(=O)[C@H](CCCNC(=N)N)NC(=O)[C@H](Cc2ccc(C(=O)O)cc2)NC(=O)[C@H](Cc2cccc(OCC(=O)O)c2)NC(=O)[C@H](C)N(C)C(=O)[C@H]([C@@H](C)CC)NC(=O)[C@H](Cc2ccccc2)N(C)C(=O)[C@H](Cc2ccc(O)cc2)NC(=O)[C@H](Cc2c[nH]c3ccccc23)NC(=O)[C@H](CO)NC(=O)CN(CCCC(=O)O)C(=O)CSC[C@H](C(=O)O)NC(=O)[C@H](Cc2ccccc2)N(C)C(=O)[C@H](C)N(C)C1=O [Myostatin_99_v163] ({CH2CO}-[Gly(N(CH2)3COOH)]SWY[NMeF]I[NMeA][Phe(3-OCH2COOH)][Phe(4-COOH)]R[NMeF][X1][NMeA][NMeF][dC]-OH; thioether N-15) | 0.0036 µM | 279 | 1 µM
7 | CCCCCCC[C@@H]1NC(=O)[C@H](Cc2ccccc2)N(C)C(=O)[C@H](CCCNC(=N)N)NC(=O)[C@H](Cc2ccc(C(=O)O)cc2)NC(=O)[C@H](Cc2cccc(OCC(=O)O)c2)NC(=O)[C@H](C)N(C)C(=O)[C@H]([C@@H](C)CC)NC(=O)[C@H](Cc2ccccc2)N(C)C(=O)[C@H](Cc2ccc(O)cc2)NC(=O)[C@H](Cc2c[nH]c3ncccc23)NC(=O)[C@H](CO)NC(=O)CN(CCCC(=O)O)C(=O)CSC[C@H](C(=O)O)NC(=O)[C@H](Cc2ccccc2)N(C)C(=O)[C@H](C)N(C)C1=O [Myostatin_99_v164] ({CH2CO}-[Gly(N(CH2)3COOH)]S[Trp(7-aza)]Y[NMeF]I[NMeA][Phe(3-OCH2COOH)][Phe(4-COOH)]R[NMeF][X1][NMeA][NMeF][dC]-OH; thioether N-15) | 0.0042 µM | 320 | 1.34 µM
8 | CCCCCCC[C@@H]1NC(=O)[C@H](Cc2ccccc2)N(C)C(=O)[C@H](CCCNC(=N)N)NC(=O)[C@H](Cc2ccc(C(=O)O)cc2)NC(=O)[C@H](Cc2cccc(OCC(=O)O)c2)NC(=O)CN(C)C(=O)[C@H]([C@@H](C)CC)NC(=O)[C@H](Cc2ccccc2)N(C)C(=O)[C@H](Cc2ccc(O)cc2)NC(=O)[C@H](Cc2c[nH]c3ccccc23)NC(=O)[C@H](C)NC(=O)CN(CCCC(=O)O)C(=O)CSC[C@H](C(=O)O)NC(=O)[C@H](Cc2ccccc2)N(C)C(=O)[C@H](C)N(C)C1=O [Myostatin_99_v165] ({CH2CO}-[Gly(N(CH2)3COOH)]AWY[NMeF]I[Sar][Phe(3-OCH2COOH)][Phe(4-COOH)]R[NMeF][X1][NMeA][NMeF][dC]-OH; thioether N-15) | 0.014 µM | 89 | 1.24 µM
9 | CCCCCCC[C@@H]1NC(=O)[C@H](Cc2ccccc2)N(C)C(=O)[C@H](CCCNC(=N)N)NC(=O)[C@H](Cc2ccc(C(=O)O)cc2)NC(=O)[C@H](Cc2cccc(OCC(=O)O)c2)NC(=O)CN(C)C(=O)[C@H]([C@@H](C)CC)NC(=O)[C@H](Cc2ccccc2)N(C)C(=O)[C@H](Cc2ccc(O)cc2)NC(=O)[C@H](Cc2c[nH]c3ncccc23)NC(=O)[C@H](C)NC(=O)CN(CCCC(=O)O)C(=O)CSC[C@H](C(=O)O)NC(=O)[C@H](Cc2ccccc2)N(C)C(=O)[C@H](C)N(C)C1=O [Myostatin_99_v166] ({CH2CO}-[Gly(N(CH2)3COOH)]A[Trp(7-aza)]Y[NMeF]I[Sar][Phe(3-OCH2COOH)][Phe(4-COOH)]R[NMeF][X1][NMeA][NMeF][dC]-OH; thioether N-15) | 0.0035 µM | 272 | 0.951 µM
